In patent publication EP4644391A1, “NOVEL PHENYLQUINOLONE COMPOUND HAVING ANTIBACTERIAL AND ANTICANCER FUNCTIONS, AND PREPARATION THEREOF” (Alphamol Science Ltd (Shanghai), priority 2022, dated 2024):
Converted amounts (≈) assume the structure as drawn.

Test system: Staphylococcus aureus ATCC43300
Test: Resistance test of bacteria against compounds (serial passage, 21 days)
Format: cell-based
Settings: Staphylococcus aureus, ATCC43300, 504 h, read-out: MIC at the end of the experiment
Description: This example provides a resistance test of bacteria against compounds, and the specific experimental method is as follows. • 1. […] It was ensured that among the 6 final concentrations of the drug diluted into the wells, some were higher than the original MIC of the bacteria and some were lower than the original MIC of the bacteria. • 2. Preparation of bacterial liquid: 10 mL of culture medium was taken and added to a sterilized plate using a pipette, then 100 µL of the above-mentioned passaged bacterial liquid was added, and mixed well for later use. • 3. The above-mentioned diluted bacterial liquid was taken and added to a 96-well plate using a pipette, 180 µL per well, 3 wells per group, 6 groups in total. 20 µL of drug solution was added to each well (note: it is necessary to replace the pipette tip each time the drug is added), so that the final drug concentrations were 2 µg/mL, 1 µg/mL, 0.8 µg/mL, 0.4 µg/mL, 0.2 µg/mL, 0.1 µg/mL, respectively. The well with 200 µL of diluted bacterial liquid was used as the positive control well, and the well with 200 µL of culture medium was used as the negative control well.
The test object was Staphylococcus aureus (S. aureus). The specific results are shown in FIG1.

Work on `CN[C@H](CC(C)C)C(=O)N[C@H]1C(=O)N[C@@H](CC(N)=O)C(=O)N[C@H]2C(=O)N[C@H]3C(=O)N[C@H](C(=O)N[C@H](C(=O)O)c4cc(O)cc(O)c4-c4cc3ccc4O)[C@H](O)c3ccc(c(Cl)c3)Oc3cc2cc(c3O[C@@H]2O[C@H](CO)[C@@H](O)[C@H](O)[C@H]2O[C@H]2C[C@](C)(N)[C@H](O)[C@H](C)O2)Oc2ccc(cc2Cl)[C@H]1O` [vancomycin] yielded an MIC of 4 µg/mL (≈ 2.76 µM).
